# Source: patent US20240299321A1, “METHODS TO SENSITIZE CANCER CELLS AND STANDARDIZED SCREENING ASSAY FOR IMMUNOTHERAPY” (THE TRUSTEES OF INDIANA UNIVERSITY, priority 2020, published 2024)
# What was measured:
# [1] = system: OVA-specific CD8+ T cells; assay: T cell effector function in EO771 organoid co-culture; format: cell-based, mouse; settings: for IFNγ, GZMB and TNFα expression levels in the co-cultured CD8+ T cells: co-cultured with drug-treated tumor organoids; for secreted IFNγ and TNFα (ELISA): vs T cells co-cultured with untreated organoids
# Procedure: (§1) T cell effector function analysis: We measured cytokine and cytolytic granule production (IFNγ, GZMB and TNFα) of CD8+ T cells from mouse tumor samples and tumor organoid-T cell co-culture. Briefly, CD8+ T cells were placed into the 24-well plate at 1×10^6 cells/well, stimulated with 1 μM ionomycin and 50 ng ml-1 phorbol 12-myristate 13-acetate (PMA) (Sigma-Aldrich) for 4 h, in the presence of 5 μg ml-1 Brefeldin A (BFA), with the purpose to amplify the expression of intracellular cytokines61. The cells were stained with APC/Cy7-conjugated anti-CD8a (Biolegend) for 15 min and then fixed by 4% PFA. After washing, cells were stained with PerCP/Cy7-conjugated anti-GZMB, APC-conjugated anti-IFNγ and PE-conjugated anti-TNFα (Biolegend) for 15 min. In flow cytometric analyses, T cells stained with isotype control antibodies were used as negative controls for gating the cytokine or granule-producing cells. For T cells from tumor organoid-T cell co-culture, tumor organoids were first digested into single cells with TrypLE Express at 37° C. before APC/Cy7-conjugated anti-CD8a staining. In the IFNγ and TNFα secretion assay (Biolegend), T cells were stimulated with ionomycin and PMA without the presence of BFA. The media were collected for ELISA assay.
# EO771 tumors = assay: EO771 orthotopic breast tumor model in immunocompetent C57BL/6 mice; format: in vivo; settings: for expression of GZMB, IFNγ and TNFα in the tumor-infiltrated CD8+ T cells / tumor infiltration of T cells (total CD3+, CD4+ and CD8+): 20 mg kg-1; for expression of GZMB, IFNγ and TNFα in the tumor-infiltrated CD8+ T cells: FIG. 3E; for tumor infiltration of T cells (total CD3+, CD4+ and CD8+): flow cytometry; for tumor growth and weight: 20 mg kg-1 i.p., 3 times/week for 2 weeks; for tumor growth and weight / tumor cell proliferation (Ki67+): vs control group; for numbers of apoptotic tumor cells (cleaved Caspase 3+) / tumor cell proliferation (Ki67+): IHC of tumor tissue; for anti-tumor activity after depletion of CD4+ T cells: anti-CD4 10 mg kg-1 + drug 20 mg kg-1; for anti-tumor activity after depletion of CD8+ T cells: anti-CD8 10 mg kg-1 + drug 20 mg kg-1; for IFNγ and TNFα secretion by CD8+ T cells of drug-treated tumors: upon stimulation (PMA and ionomycin)
# Procedure: as §1
# Immunohistochemistry (IHC) and Immunofluorescence (IF) analysis of tumor organoids: Tumor organoids were gently centrifuged at 100 rcf from organoid culture medium and then embedded in 2% agar. Tumor organoids were fixed in 4% paraformaldehyde solution for overnight at room temperature. The samples were replaced with 70% ethanol and later embedded in paraffin blocks. Paraffin sections were cut at 5 μm thickness, attached on slides, heated at 60° C. for 1 h and then overnight at 37° C. The slides were stained with hematoxylin and eosin (H&E). IHC staining follows the protocol described62. Mouse-specific antibodies for CD8α (Cell Signaling Technology, clone D4W2Z, 1:400 dilution), cleaved caspase3 (Cell Signaling Technology, clone D175, 1:400 dilution) and Ki67 (Cell Signaling Technology, clone D3B5, 1:400 dilution) were used for IHC staining. The DAB peroxidase substrate kit (Vector laboratories Inc.) was used to visualize the antibodies. For IF analysis, the sample slides were blocked 3% BSA for 40 min after hydration. The slides were stained with primary antibodies including EpCAM (Abcam, 1:400 dilution), FITC-conjugated anti-α-SMA (Genetex, 1:400 dilution) and AF594-conjugated anti-CD31 (Biolegend) for 1 h. For EpCAM staining, the slide was further stained with secondary antibody Alexa Fluor 647-conjugated anti-rabbit IgG (Biolegend, 1:200) for 40 min. The fluorescence images were captured under a Leica DM4B microscope.
# Animal studies: All animal experiments were performed in accordance with the National Institutes of Health's Animal Use Guidelines and protocols approved by the Animal Care and Use Committee of Indiana University School of Medicine. To examine the tumorigenic potential of tumor organoids, tumor organoids with different sizes (diameter of 30-70, 70-150, and 150-500 μm) were orthotopically injected into fat pad of the 4th mammary gland in female C57BL/6 mice. Each mouse was injected with a total of 2×10^5 tumor cells. 5 mice were used in each group. Tumors were measured in two dimensions using a manual caliper. Tumor volume was calculated using the following formula: V=0.5×length×width×width. Tumor volume was measured every 3 days. Tumors were harvested 22 days after injection. The tumor growth, volume and weight were analyzed. To evaluate the anti-tumor effect of drugs in immunocompetent C57BL/6 mice and immunodeficient nude (NU/J) mice, 2×10^5 EO771 cells were orthotopically injected into fat pad of the 4th mammary gland in female mice. […]
# [2] = system: NY-ESO-1+ MDA-MB-468 cells; assay: HLA presentation on NY-ESO-1+ MDA-MB-468 cells (flow cytometry, confocal); format: cell-based, human; settings: for HLA-A2 antigen presentation (confocal images): 1 μM, 48 h, FIG. 4F; for HLA levels on MDA-MB-468 cells (MFI): flow cytometry
# Procedure: Flow Cytometry: Sample acquisition was done using LSR Fortessa X-20 or LSR Fortessa (BD Biosciences) and data were analyzed using FlowJo v10.6.0 software. Live/dead cells were assessed using SYTOX Blue (Invitrogen, Dilution 1:100). For cell staining involving cell permeabilization, the BD cytofix/cytoperm fixation permeabilization kit (BD Biosciences) was used. The PBS buffer containing 0.5% BSA and 10% FBS were used to dilute antibodies. The antibodies used in flow cytometrical analyses include: […] The compensation was performed using CompBeads for negative control (BD Biosciences), anti-mouse Ig,κ (BD Biosciences), anti-rat Ig,κ and anti-hamster Ig,κ (BD Biosciences). The beads were stained with the corresponding antibodies separately under the same conditions as the cells were stained in each experiment. SYTOX Blue reagent was used to stain dead cells. Half of the live cells were incubated at 60° C. for 2 min to enable membrane permeable and then mixed with the other half incubated at 37° C. The mixed cells were stained with SYTOX Blue for 15 mins and used for compensation. For all the data analysis, doublet exclusion was performed and only single cells were analyzed. Dead cell populations were also excluded from analysis if the experiment were not involved in cell killing. One million events per sample were collected for immune profiling analysis in the animal experiments. For all in vitro experiments, at least ten thousand events per sample were collected for flow cytometry analysis. Confocal Microscopy: OVA+ EO771 and NY-ESO-1+ MDA-MB-468 cells were seeded at 5×10^3 cell/well in the 8-well slide (Millicell EZ slide, […]) and treated with 1 μM drug (GSK-LSD1, CUDC-101 or BML-210) for 48 h. FITC-conjugated anti-mouse H-2Kb antibody (Biolegend, dilution 1:50) and FITC-conjugated anti-HLA-A2 (Biolegend, dilution 1:50) were used to stain OVA+ EO771 and NY-ESO-1+ MDA-MB-468 cells, respectively, for 2 h. For cell nucleus staining, cells were incubated with 0.5% Triton X-100/PBS for 10 min and stained with DAPI (Sigma-Aldrich, dilution 1:100) for 15 min. The slides were rinsed in PBS twice and mounted with ProLong Gold anti-fade mountant (Invitrogen, P36930). Fluorescence images were captured using Leica TCS SP8 (upright high speed multiphoton) confocal imaging system. 3-D images were analyzed by the Imaris x64 8.1.2 software.
Structure (SMILES),"IFNγ, GZMB and TNFα expression levels in the co-cultured CD8+ T cells [1]",secreted IFNγ and TNFα (ELISA) [1],"expression of GZMB, IFNγ and TNFα in the tumor-infiltrated CD8+ T cells (EO771 tumors)","tumor infiltration of T cells (total CD3+, CD4+ and CD8+) (EO771 tumors)",tumor growth and weight (EO771 tumors),numbers of apoptotic tumor cells (cleaved Caspase 3+) (EO771 tumors),tumor cell proliferation (Ki67+) (EO771 tumors),anti-tumor activity after depletion of CD4+ T cells (EO771 tumors),anti-tumor activity after depletion of CD8+ T cells (EO771 tumors),anti-tumor activity relative to the other candidates (EO771 tumors; in vitro and in vivo assays),IFNγ and TNFα secretion by CD8+ T cells of drug-treated tumors (EO771 tumors),HLA-A2 antigen presentation (confocal images) [2],HLA levels on MDA-MB-468 cells (MFI) [2],cytotoxicity of the CD8+ T cells in the tumors (EO771 tumors; immune analyses of treated tumors)
Nc1ccccc1NC(=O)CCCCCCC(=O)Nc1ccccc1 [BML-210],remarkably up-regulated,much higher levels,up-regulated,higher tumor infiltration,significantly suppressed,increased,markedly lower,did not have much effect,abolished the anti-tumor activity,most potent anti-tumor activity,secreted more IFNγ and TNFα,boosted up the antigen presentation,much higher levels,
C#Cc1cccc(Nc2ncnc3cc(OC)c(OCCCCCCC(=O)NO)cc23)c1 [CUDC-101],remarkably up-regulated,much higher levels,up-regulated,higher tumor infiltration,significantly suppressed,increased,markedly lower,did not have much effect,abolished the anti-tumor activity,,secreted more IFNγ and TNFα,boosted up the antigen presentation,increased,
c1ccc([C@@H]2C[C@H]2NC2CCNCC2)cc1 [GSK-LSD1],remarkably up-regulated,much higher levels,,higher tumor infiltration of T cells,markedly suppressed,increased,much lower,,,,,boosted up the antigen presentation,increased,enhanced cytotoxicity of the CD8+ T cells
